Source: US6063782A, “Pyrrolopyridazine derivatives” (Sankyo Company, Limited, priority 1994, dated 2000)

Each compound was assayed on Helicobacter pylori strains 9470, 9472 and 9474 (assay: Antibacterial activity against Helicobacter pylori). Conditions: strains 9470, 9472 and 9474, 37° C., 3 days, slightly aerobic; result given in words only.
Assay type: cell-based
Protocol: Antibacterial activity against Helicobacter pylori The antibacterial activity of the compounds of the present invention were evaluated by measuring the minimum inhibitory concentration values (MIC) of the present compounds against Helicobacter pylori strains 9470, 9472 and 9474. These strains of Helicobacter pylori were incubated for 4 days on a plate medium. The medium was prepared by dissolving brain heart infusion agar (Product of DIFCO) in a defined amount of distilled water, by sterilization in an autoclave, injecting horse blood (Product of Nihon Seibutsu Zairyo Co.) into each plate for the medium to contain 7% of the blood and by solidifying. Under slightly aerobic conditions, Helicobacter pylori cultivated at 37° C. for 4 days was suspended in a physiological saline solution for its inocular size to be about 10^8 CFU/ml. The suspension was diluted 100 times, and about 10 μl of the diluted suspension was inoculated on a medium for MIC determination. The medium for MIC determination used had the same compounds as those for preculture. […] In a similar way to the preculture, Helicobacter pylori was cultivated at 37° C. for 3 days under slightly aerobic conditions. […] The minimum concentration which gave no bacterial growth was regarded as MIC of the compound of the present invention.
`CC/C=C/Cn1c(C)c(C)c2cnnc(OCc3ccccc3)c21` [Example 11, 7-Benzyloxy-2,3-dimethyl-1-(2-pentenyl)pyrrolo[2,3-d]pyridazine] was tested, and the “minimum inhibitory concentration (MIC) against Helicobacter pylori” value (“minimum inhibitory concentration (MIC)” below) was “excellent antibacterial activity”.
In the case of `C=CCn1c(C)c(C)c2cnnc(OCc3ccccc3F)c21` [Example 10, 7-(2-Fluorobenzyloxy)-2,3-dimethyl-1-(2-propenyl)nvrrolo[2,3-d]pyridazine], the “minimum inhibitory concentration (MIC)” value is reported as “excellent antibacterial activity”.
`C/C=C\Cn1c(C)c(C)c2cnnc(OCc3ccc(F)cc3)c21` [Example 29, 1-(2-Butenyl)-7-(4-fluorobenzyloxy)-2,3-dimethylpyrrolo[2,3-d]pyridazine] was tested, and the “minimum inhibitory concentration (MIC)” value was “excellent antibacterial activity”.
`Cc1c(C)n(CC(F)(F)F)c2c(OCc3ccccc3)nncc12` [Example 15, 7-Benzyloxy-2,3-dimethyl-1-(2,2,2-trifluoroethyl)pyrrolo[2,3-d]pyridazine] was tested, and the “minimum inhibitory concentration (MIC)” value was “excellent antibacterial activity”.
For `CC(C)=CCn1c(C)c(C)c2cnnc(OCc3ccccc3)c21` [Example 2, 7-Benzyloxy-2,3-dimethyl-1-(3-methyl-2-butenyl)pyrrolo[2,3-d]pyridazine], the “minimum inhibitory concentration (MIC)” value was “excellent antibacterial activity”.
For `C=C=Cn1c(C)c(C)c2cnnc(OCc3ccccc3)c21` [Example 45, 7-Benzyloxy-2,3-dimethyl-1-(propane-1,2-dienyl)pyrrolo[2,3-d]pyridazine], the “minimum inhibitory concentration (MIC)” value was “excellent antibacterial activity”.
For `Cc1c(C)n(C/C=C/c2ccccc2)c2c(OCc3ccccc3)nncc12` [Example 6, 7-Benzyloxy-2,3-dimethyl-1-(3-phenyl-2-propenyl)pyrrolo[2,3-d]pyridazine], the “minimum inhibitory concentration (MIC)” value was “excellent antibacterial activity”.
`Cc1c(C)n(C/C=C/c2ccccc2)c2c(OCc3ccc(F)cc3)nncc12` [Example 24, 7-(4-Fluorobenzyloxy)-2,3-dimethyl-1-(3-phenyl-2-propenyl)pyrrolo[2,3-d]pyridazine] was tested, and the “minimum inhibitory concentration (MIC)” value was “excellent antibacterial activity”.
`Cc1c(C)n(CCF)c2c(OCc3ccccc3)nncc12` [Example 18, 7-Benzyloxy-1-(2-fluoroethyl)-2,3-dimethylpyrrolo[2,3-d]pyridazine] was tested, and the “minimum inhibitory concentration (MIC)” value was “excellent antibacterial activity”.
With `C=CCn1c(C)c(C)c2cnnc(SCc3ccc(F)cc3)c21` [Example 34, 7-(4-Fluorobenzylthio)-2,3-dimethyl-1--(2-propenyl)ipyrrolo[2,3-d]pyridazine] the “minimum inhibitory concentration (MIC)” value was “excellent antibacterial activity”.
For `CC=CCn1c(C)c(CC)c2cnnc(OCc3ccc(F)cc3)c21` [Example 56, 1-(2-Butenyl)-3-ethyl-7-(4-fluorobenzyloxy)-2-methylpyrrolo[2,3-d]pyridazine], the “minimum inhibitory concentration (MIC)” value was “excellent antibacterial activity”.
In the case of `Cc1c(C)n(CC(F)F)c2c(OCc3ccccc3)nncc12` [Example 20, 7-Benzyloxy-1-(2,2-difluoroethyl)-2,3-dimethylpyrrolo[2,3-d]pyridazine], the “minimum inhibitory concentration (MIC)” value is reported as “excellent antibacterial activity”.
For `Cc1c(C)n(C2CCCCC2)c2c(OCc3ccccc3)nncc12` [Example 23, 7-Benzyloxy-1-cyclohexyl-2,3-dimethylpyrrolo[2,3-d]pyridazine], the “minimum inhibitory concentration (MIC)” value was “excellent antibacterial activity”.
In the case of `C=CCn1c(C)c(C)c2cnnc(OCc3cccc(F)c3)c21` [Example 8, 7-(3-Fluorobenzyloxy)-2,3-dimethyl-1-(2-propenyl)pyrrolo[2,3-d]pyridazine], the “minimum inhibitory concentration (MIC)” value is reported as “excellent antibacterial activity”.
In the case of `CC=CCn1c(C)c(C)c2cnnc(SCc3c(F)cccc3Cl)c21` [Example 52, 1-(2-Butenyl)-7-(2-chloro-6-fluorobenzylthio)-2,3-dimethylpyrrolo[2,3-d]pyridazine], the “minimum inhibitory concentration (MIC)” value is reported as “excellent antibacterial activity”.
For `Cc1c(C)n(CCCF)c2c(OCc3ccccc3)nncc12` [Example 19, 7-Benzyloxy-1-(3-fluoropropyl)-2,3-dimethylpyrrolo[2,3-d]pyridazine], the “minimum inhibitory concentration (MIC)” value was “excellent antibacterial activity”.
For `C=CCn1c(C)c(CC)c2cnnc(OCc3ccccc3)c21` [Example 27, 7-Benzyloxy-3-ethyl-2-methyl-1-(2-propenyl)-6pyrrolo[2,3-d]pyridazine], the “minimum inhibitory concentration (MIC)” value was “excellent antibacterial activity”.
In the case of `CC=CCn1c(C)c(C)c2cnnc(SCc3ccc(F)cc3)c21` [Example 50, 1-(2-Butenyl)-7-(4-fluorobenylthio)-2,3-dimethylpyrrolo[2,3-d]pyridazine], the “minimum inhibitory concentration (MIC)” value is reported as “excellent antibacterial activity”.
In the case of `C=Cn1c(C)c(C)c2cnnc(OCc3ccccc3)c21` [Example 13, 7-Benzyloxy-2,3-dimethyl-1-vinylpyrrolo[2,3-d]pyridazine], the “minimum inhibitory concentration (MIC)” value is reported as “excellent antibacterial activity”.
With `CC=CCn1c(C)c(C)c2cnnc(SCc3ccc(F)cc3F)c21` [Example 51, 1-(2-Butenyl)-7-(2,4-difluorobenzylthio)-2,3-dimethylpyrrolo[2,3-d]pyridazine] the “minimum inhibitory concentration (MIC)” value was “excellent antibacterial activity”.
With `C=CCn1c(C)c(C)c2cnnc(OCc3ccc(C(F)(F)F)cc3)c21` [Example 25, 2,3-Dimethyl-1-(2-propenyl)-7-(4-trifluoromethylbenzyloxy)pyrrolo[2,3-d]pyridazine] the “minimum inhibitory concentration (MIC)” value was “excellent antibacterial activity”.

What follows are compounds tested on gastric acid secretion (assay: Gastric acid secretion activity test using pyloric ligation in rats (Shay rat method)). Conditions: male SD rats, 20 mg/kg injected into the duodenal region, 4 hours, result given in words only.
Assay type: in vivo
Protocol: Gastric acid secretion activity test using pyloric ligation in rats (Shay rat method)
Pyloric ligation was conducted based on the method of Shay et al. [Gastroenterology, 5, 43 (1945)]. Male rats of SD strain were fasted for 24 hours; their abdomens were sectioned during anesthesia under ether. The duodenal and pyloric regions were exposed and the latter was ligated. A solution of a test compound (10 mg/ml) prepared by use of 1.5w parts of dimethylacetamide, 68.5% parts of polyethyleneglycol (PEG-400) and 30% parts of physiological saline solution, was injected into the duodenal region for the dose to be 20 mg/kg by use of a 1-ml syringe and an injection needle (26G). After injection of the test compound, the abdominal region was sutured. The animals were allowed to a stand for 4 hours without feeding food and water and then sacrified with carbon dioxide gas. The stomach was excised and gastric juice was gathered. The gastric juice sample was centrifuged (4° C., 2500 rpm, 15 minutes). The amount of the supernatant was measured to be as the gastric secretion. The acidity of the gastric juice was determined by the amount (ml) of 0.01 N sodium hydroxide solution required for titration of 0.1 ml of the supernatant to pH 7.0 by use of-an auto-titrating apparatus. The value of gastric acid secretion was calculated from the value of gastric secretion and the acidity of gastric juice. The inhibiting rate was obtained from the values of gastric acid secretion of the control group and of the administered group.
`CC/C=C/Cn1c(C)c(C)c2cnnc(OCc3ccccc3)c21` [Example 11, 7-Benzyloxy-2,3-dimethyl-1-(2-pentenyl)pyrrolo[2,3-d]pyridazine] was tested, and the “inhibiting rate of gastric acid secretion” value (“inhibiting rate” below) was “excellent activity”.
`CC=CCn1c(C)c(C)c2cnnc(OCc3c(F)cccc3Cl)c21` [Example 40, 1-(2-Butenyl)-7-(2-chloro-6-fluorobenzyloxy)-2,3-dimethylpyrrolo[2,3-d]pyridazine] was tested, and the “inhibiting rate” value was “excellent activity”.
For `C=C(C)Cn1c(C)c(C)c2cnnc(OCc3ccc(F)cc3)c21` [Example 26, 7-(4-Fluorobenzyloxy)-2,3-dimethyl-1-(2-methyl-2-propenyl)pyrrolo[2,3-d]pyridazine], the “inhibiting rate” value was “excellent activity”.
`Cc1c(C)n(CC2CCCCC2)c2c(OCc3ccc(F)cc3)nncc12` [Example 37, 1-Cyclohexylmethyl-7-(4-fluorobenzyloxy)-2,3-dimethylpyrrolo[2,3-d]pyridazine] was tested, and the “inhibiting rate” value was “excellent activity”.
For `C#CCn1c(C)c(C)c2cnnc(OCc3ccccc3)c21` [Example 42, 7-Benzyloxy-2,3-dimethyl-1-(2-propynyl)pyrrolo[2,3-d]pyridazine], the “inhibiting rate” value was “excellent activity”.
With `C/C=C/Cn1c(CC)c(C)c2cnnc(OCc3ccc(F)cc3)c21` [Example 33, 1-(2-Butenyl)-2-ethyl-7-(4-fluorobenzyloxy)-3-methylpyrrolo[2,3-d]pyridazine] the “inhibiting rate” value was “excellent activity”.
For `CC=CCn1c(C)c(C)c2cnnc(CCc3ccc(F)cc3)c21` [Example 62, 1-(2-Butenyl)-7-(4-fluorophenethyl)-2,3-dimethylpyrrolo[2,3-d]pyridazine], the “inhibiting rate” value was “excellent activity”.
In the case of `Cc1c(C)n(CC2CC2C)c2c(CCc3ccccc3)nncc12` (stereo not shown) [Example 68, 2,3-Dimethyl-1-(2-methylcyclopropylmethyl)-7-phenethylpyrrolo[2,3-d]pyridazine], the “inhibiting rate” value is reported as “excellent activity”.
In the case of `Cc1c(C)n(CC=C(Cl)Cl)c2c(OCc3ccccc3)nncc12` [Example 41, 7-Benzyloxy-1-(3,3-dichloro-2-propenyl)-2,3-dimethylpyrrolo[2,3-d]pyridazine], the “inhibiting rate” value is reported as “excellent activity”.
With `CC=CCn1c(C)c(C)c2cnnc(OCc3cccnc3)c21` [Example 32, 1-(2-Butenyl)-2,3-dimethyl-7-(3-pyridylmethyloxy)pyrrolo[2,3-d]pyridazine] the “inhibiting rate” value was “excellent activity”.
